US20190212325A1, “AN EX VIVO METHOD FOR TESTING CELLULAR RESPONSEIVENESS OF PRIMARY CELL POPULATIONS TO A DRUG OR COMBINATION OF DRUGS” (VIVIA BIOTECH, S.L, priority 2015, published 2019)

Key:
primary CLL cells = assay: Ex vivo viability (Annexin V) and proliferation (CFDA) of primary CLL cells with AE, HS-5 stroma and CpG+IL-2, drug dose response; assay type: cell-based; conditions: 96 hours, 1.6% AE, 10% Human Serum, HS-5 100:1, CpG ODN + IL-2, 8 concentrations
primary MM cells = assay: Ex vivo viability (Annexin V) and proliferation (CFDA) of primary MM cells in whole BM with AE (autologous plasma), lenalidomide dose response; assay type: cell-based, human; conditions: 96 hours, 20% autologous plasma (AE)
Source text: Patient whole BM was obtained and prepared as indicated above for each sample type. The Vybrant® CFDA SE Cell Tracer Kit (Molecular Probes) was used to measure cell proliferation as it has been disclosed in Example 3. After the CFDA protocol, all samples were resuspented in Culture Medium+Zell Shield (Labclinics)+L-Glu (Lonza)+20% FBS. Condition A samples stayed as is, condition B samples had different concentrations of autologous MM plasma plus RBCs added and condition C samples received 20% autologous plasma. The final cell concentration ranged from 20 cells/μl to 70 cells/μl. Alternatively, the autologous plasma can be replaced with a pool of three MM plasmas.
The CFDA labeled plasmatic cells were dispensed into 96-well plates (60 μl/well) and incubated at 37° C. with 5% CO2 during 72 or 96 hours. For analysis, MM cells (assessed by monoclonal antibodies) were tested for both viability (Annexin-V staining) and proliferation (CFDA).
After 96 hours of culture, the CFDA staining in conjunction with the immunophenotyping allowed for the analysis of both viability (Annexin-V negative) and proliferation (CFDA peaks) of the plasmatic cells, following the previously described methods using Vivia's ExviTech platform.
As the number of MM cells detected after 96 hours of incubation was too low in just a single well, a pooled well assay was performed, obtaining sample from 4 wells that have been treated in an identical manner. […] According to this, and based on the initial cell count, calculation of the sample volume was done for plating between 1000 and 4000 live pathological MM cells per well. During acquisition, sample from four wells was obtained for each treatment, thus obtaining a minimum of 4000 and a maximum of 16000 live plasmatic cells. The results of these experiments indicate that the use of patient's whole bone marrow plus 20% of autologous plasma, or a pool of at least 3 MM plasmas (Condition C from above) and the use of IMDM culture medium provided the best conditions to achieve better MM cells viability and higher proliferation rates (data not shown). Additionally, the presence of either of the two human stromal cell lines, HS27a and HS5, appeared to have a negative effect on both viability and proliferation.
Some drugs used to treat tumor cells preferentially target cells that are actively proliferating, acting as anti-proliferative agents. An example of this is the use of lenalidomide to treat patients diagnosed with MM. The efficacy of lenalidomide is difficult to assess in ex vivo assays against MM primary tumor cells, as these cells have very low levels of proliferation under the conditions that have traditionally been used. In this example, we tested BM samples from 10 patients diagnosed with MM in our ex vivo assay. AE (plasma only) was added to the culture medium to increase levels of proliferation and lenalidomide was tested across a concentration range of 0.03 to 30 μM.
Whole BM from 10 MM patients was cultured in IMDM medium supplemented with 1% antibiotic, 1% L-Glutamine plus an additional 20% of autologous plasma (AE), for 96 hours. Samples were processed and analyzed as outlined in Example 12. MM cell viability (Annexin V) and proliferation (CFDA) were tested against 4 concentrations of Lenalidomide.

SMILES | effect on Non-Proliferative (NP) Live Tumor Cells (survival index) (primary CLL cells; NP fraction) | inhibition of the proliferation, Proliferative (PR) cell fraction (survival index) (primary CLL cells; PR fraction) | effect on NP MM cells (survival index) (primary MM cells; sample 1, 0.03 to 30 μM) | effect on PR MM cells (survival index) (primary MM cells; sample 1, 0.03 to 30 μM) | PR cells eliminated (primary MM cells; sample 3) | NP cells eliminated (primary MM cells; sample 3, at a higher concentration) | potency against the PR population (primary MM cells; sample 3, low concentration) | effect in the NP population (primary MM cells; sample 6) | effect on the PR population (primary MM cells; sample 6) | effect against the PR cells (primary MM cells; sample 7) | effect on the NP cells (primary MM cells; sample 7, at a higher concentration)
CC[C@H](Nc1ncnc2[nH]cnc12)c1nc2cccc(F)c2c(=O)n1-c1ccccc1 [Idelalisib] | little effect | potent inhibition of the proliferation is observed in the low nM range |  |  |  |  |  |  |  |  | 
Nc1cccc2c1CN(C1CCC(=O)NC1=O)C2=O (centres unmarked) [lenalidomide] |  |  | no effect | no effect | about 60% | about 20% | very potent | small effect | no effect | very potent and effective | effects the NP cells
